O=[N+]([O-])/N=C1\NCCN1Cc1ccc(Cl)nc1
Settings	solubility (mole fraction)
in 1,2-dichloroethane, 299.96 K	0.00987
in 1,2-dichloroethane, 302.87 K	0.0108
in 1,2-dichloroethane, 304.97 K	0.0116
in 1,2-dichloroethane, 310.08 K	0.0142
in 1,2-dichloroethane, 314.14 K	0.0161
in 1,2-dichloroethane, 317.43 K	0.0183
in 1,2-dichloroethane, 321.31 K	0.0213
in 1,2-dichloroethane, 325.67 K	0.0243
in 1,2-dichloroethane, 328.74 K	0.0271
in 1,2-dichloroethane, 331.34 K	0.0309
in 1,2-dichloroethane, 333.75 K	0.0345
in 1,2-dichloroethane, 336.91 K	0.0392
in 1,2-dichloroethane, 339.95 K	0.0442
in 1,2-dichloroethane, 342.81 K	0.049
in 1,2-dichloroethane, 345.2 K	0.0546
in 1,2-dichloroethane, 347.1 K	0.0612
in 2-butanone, 293.07 K	0.0159
in 2-butanone, 299.44 K	0.0192
in 2-butanone, 302.54 K	0.0213
in 2-butanone, 306.3 K	0.0238
in 2-butanone, 308.85 K	0.026
in 2-butanone, 311.24 K	0.0281
in 2-butanone, 314.22 K	0.0308
in 2-butanone, 318.19 K	0.0346
in 2-butanone, 320.83 K	0.0379
in 2-butanone, 323.87 K	0.0419
in 2-butanone, 326.73 K	0.046
in 2-butanone, 329.81 K	0.0504
in 2-butanone, 332.97 K	0.0573
in 2-butanone, 335.21 K	0.0617
in 2-butanone, 337.54 K	0.0678
in 2-butanone, 340.65 K	0.0749
in 2-butanone, 343.2 K	0.0823
in acetone, 294.64 K	0.012
in acetone, 300.05 K	0.0141
in acetone, 301.76 K	0.0148
in acetone, 305.05 K	0.0162
in acetone, 307.77 K	0.0175
in acetone, 310.17 K	0.0187
in acetone, 317.25 K	0.0232
in acetone, 319.14 K	0.0248
in acetone, 321.59 K	0.0265
in acetone, 327.89 K	0.0325
in acetone, 330.2 K	0.0353
in chloroform, 292.04 K	0.00848
in chloroform, 294.49 K	0.00916
in chloroform, 298.22 K	0.0102
in chloroform, 303.84 K	0.0115
in chloroform, 307.04 K	0.0123
in chloroform, 310.05 K	0.0132
in chloroform, 314.03 K	0.0143
in chloroform, 316.75 K	0.0153
in chloroform, 319.07 K	0.0167
in chloroform, 321.74 K	0.0183
in chloroform, 324.64 K	0.0198
in chloroform, 326.71 K	0.0215
in chloroform, 330.16 K	0.024
in dichloromethane, 293.97 K	0.0132
in dichloromethane, 295.96 K	0.0146
in dichloromethane, 298 K	0.0157
in dichloromethane, 300.05 K	0.0166
in dichloromethane, 302.6 K	0.0177
in dichloromethane, 303.99 K	0.0189
in dichloromethane, 305.96 K	0.0199
in dichloromethane, 307.8 K	0.0211
in dichloromethane, 309.6 K	0.0223
in dichloromethane, 311.66 K	0.0236
in dichloromethane, 313.14 K	0.0248
in dichloromethane, 313.93 K	0.0254
in ethanol, 298.69 K	0.000502
in ethanol, 301.12 K	0.000569
in ethanol, 305.66 K	0.000794
in ethanol, 308.87 K	0.001
in ethanol, 312.34 K	0.00118
in ethanol, 315.96 K	0.00136
in ethanol, 318.07 K	0.00151
in ethanol, 320.74 K	0.0017
in ethanol, 323.96 K	0.00197
in ethanol, 327.54 K	0.00225
in ethanol, 330.06 K	0.00251
in ethanol, 333.57 K	0.00289
in methanol, 293.79 K	0.00102
in methanol, 295.38 K	0.00111
in methanol, 299.81 K	0.00136
in methanol, 302.15 K	0.00156
in methanol, 305.86 K	0.00179
in methanol, 309.32 K	0.00211
in methanol, 312.62 K	0.00247
in methanol, 315.38 K	0.00283
in methanol, 320.59 K	0.00361
in methanol, 323.37 K	0.00413
in methanol, 328.11 K	0.0053
in methanol, 330.75 K	0.00598
in methanol, 333.34 K	0.00676
in water, 302.76 K	2.68e-05
in water, 308.62 K	3.94e-05
in water, 314.75 K	4.87e-05
in water, 324.15 K	8.35e-05
in water, 329.34 K	0.000119
in water, 330.75 K	0.000132
in water, 334.52 K	0.000169
in water, 340.44 K	0.000231
in water, 344.57 K	0.000287
in water, 346.87 K	0.000323
in water, 348.94 K	0.000363
